Source: ChEMBL document CHEMBL5608163, “Structure modification of anoplin for fighting resistant bacteria” (Eur J Med Chem, 2024)
≈ marks a conversion by molar mass, not a printed value. Square brackets hold non-standard residues; d marks the D form. Peptide text beside a SMILES is read from it. * marks the point of attachment. NMeI = CC[C@H](C)[C@H](NC)C(=O)O; Tridecanoyl = CCCCCCCCCCCCC(=O)*; NMeL = CN[C@@H](CC(C)C)C(=O)O; Undecanoyl = CCCCCCCCCCC(=O)*; Nonanoyl = CCCCCCCCC(=O)*

Experiments:
[1] = (§1) Hemolytic activity in mouse Red blood cells incubated for 1 hr by microplate reader assay; type: toxicity, cell-based, Erythrocyte; conditions: red blood cells
Staphylococcus aureus [2] = assay: Antibacterial activity against Staphylococcus aureus ATCC 25923 assessed as reduction in bacterial cell growth measured for 18 hrs by Mueller-Hinton broth based two-fold serial dilution method; type: functional
Bacillus subtilis [3] = assay: Antibacterial activity against Bacillus subtilis ATCC 23857 assessed as reduction in bacterial cell growth measured for 18 hrs by Mueller-Hinton broth based two-fold serial dilution method; type: functional
Escherichia coli [4] = assay: Antibacterial activity against Escherichia coli ATCC 25922 assessed as reduction in bacterial cell growth measured for 18 hrs by Mueller-Hinton broth based two-fold serial dilution method; type: functional
Pseudomonas aeruginosa [5] = assay: Antibacterial activity against Pseudomonas aeruginosa ATCC 27853 assessed as reduction in bacterial cell growth measured for 18 hrs by Mueller-Hinton broth based two-fold serial dilution method; type: functional
Klebsiella pneumoniae [6] = assay: Antibacterial activity against Klebsiella pneumoniae ATCC 700603 assessed as reduction in bacterial cell growth measured for 18 hrs by Mueller-Hinton broth based two-fold serial dilution method; type: functional
Staphylococcus aureus [7] = assay: Antibacterial activity against Staphylococcus aureus ATCC 25923 assessed as reduction in bacterial growth incubated for 18 to 20 hrs by Mueller Hinton broth dilution method; type: functional; conditions: time 18-20 hrs
Bacillus subtilis [8] = assay: Antibacterial activity against Bacillus subtilis ATCC 23857 assessed as reduction in bacterial growth incubated for 18 to 20 hrs by Mueller Hinton broth dilution method; type: functional; conditions: time 18-20 hrs
Escherichia coli [9] = assay: Antibacterial activity against Escherichia coli ATCC 25922 assessed as reduction in bacterial growth incubated for 18 to 20 hrs by Mueller Hinton broth dilution method; type: functional; conditions: time 18-20 hrs
Pseudomonas aeruginosa [10] = assay: Antibacterial activity against Pseudomonas aeruginosa ATCC 27853 assessed as reduction in bacterial growth incubated for 18 to 20 hrs by Mueller Hinton broth dilution method; type: functional; conditions: time 18-20 hrs
Erythrocyte = assay: as §1; type: toxicity, cell-based; conditions: erythrocyte, 1 h
Klebsiella pneumoniae [11] = assay: Antimicrobial activity against Klebsiella pneumoniae assessed as reduction in bacterial growth incubated for 18 to 20 hrs by Mueller-Hinton broth based microdilution method; type: functional; conditions: time 18-20 hrs
Staphylococcus aureus [12] = assay: Antibacterial activity against Staphylococcus aureus ATCC 25923 assessed as reduction in bacterial growth incubated for 18 to 24 hrs by broth microdilution method; type: functional; conditions: time 18-24 hrs
Escherichia coli [13] = assay: Antibacterial activity against Escherichia coli ATCC 25922 assessed as reduction in bacterial growth by broth microdilution method; type: functional

| SMILES | HC50 at 1 h [1] [µM] | MIC (Staphylococcus aureus [2]) [µM] | MIC (Bacillus subtilis [3]) [µM] | MIC (Escherichia coli [4]) [µM] | MIC (Pseudomonas aeruginosa [5]) [µM] | MIC (Klebsiella pneumoniae [6]) [µM] | MIC (Staphylococcus aureus [7]) [µM] | MIC (Bacillus subtilis [8]) [µM] | MIC (Escherichia coli [9]) [µM] | MIC (Pseudomonas aeruginosa [10]) [µM] | HC10 (Erythrocyte) [µM] | MIC (Klebsiella pneumoniae [11]) [µM] | MIC (Staphylococcus aureus [12]) [µM] | MIC (Escherichia coli [13]) [µM] |
| --- | --- | --- | --- | --- | --- | --- | --- | --- | --- | --- | --- | --- | --- | --- |
| CCCCCCCCCCC(=O)NCC(=O)N[C@@H](CC(C)C)C(=O)N(C)[C@@H](CC(C)C)C(=O)N[C@@H](CCCCN)C(=O)N[C@@H](CCCNC(=N)N)C(=O)N(C)[C@H](C(=O)N[C@@H](CCCCN)C(=O)N[C@H](C(=O)N[C@@H](CC(C)C)C(=O)N[C@@H](CC(C)C)C(N)=O)[C@@H](C)O)[C@@H](C)CC (Undecanoyl-GL[NMeL]KR[NMeI]KTLL-NH2) | > 256 | 16 (≈ 21.6 µg/mL) | 4 (≈ 5.4 µg/mL) | 16 (≈ 21.6 µg/mL) | 8 (≈ 10.8 µg/mL) | 64 (≈ 86.4 µg/mL) | – | – | – | – | – | – | – | – |
| CCCCCCCCCCCCC(=O)NCC(=O)N[C@@H](CC(C)C)C(=O)N(C)[C@@H](CC(C)C)C(=O)N[C@@H](CCCCN)C(=O)N[C@@H](CCCNC(=N)N)C(=O)N(C)[C@H](C(=O)N[C@@H](CCCCN)C(=O)N[C@H](C(=O)N[C@@H](CC(C)C)C(=O)N[C@@H](CC(C)C)C(N)=O)[C@@H](C)O)[C@@H](C)CC (Tridecanoyl-GL[NMeL]KR[NMeI]KTLL-NH2) | 64 | 4 (≈ 5.51 µg/mL) | 4 (≈ 5.51 µg/mL) | 8 (≈ 11 µg/mL) | 8 (≈ 11 µg/mL) | 32 (≈ 44.1 µg/mL) | – | – | – | – | – | – | – | – |
| CC(C)C[C@@H](NC(=O)[C@@H](CC(C)C)NC(=O)[C@@H](CCCCN)NC(=O)[C@@H](CCCCN)NC(=O)[C@@H](Cc1c[nH]c2ccccc12)NC(=O)[C@@H](Cc1c[nH]c2ccccc12)NC(=O)[C@@H](CCCCN)NC(=O)[C@@H](CC(C)C)NC(=O)[C@@H](CC(C)C)NC(=O)[C@H](N)CCCCN)C(N)=O (H-[dK][dL][dL][dK][dW][dW][dK][dK][dL][dL]-NH2) | – | – | – | – | – | – | 8 (≈ 10.8 µg/mL) | 4 (≈ 5.42 µg/mL) | 64 (≈ 86.7 µg/mL) | 8 (≈ 10.8 µg/mL) | > 200 | – | – | – |
| CC[C@H](C)[C@H](NC(=O)[C@H](CCCNC(=N)N)NC(=O)[C@@H](CCCCN)NC(=O)[C@H](CC(C)C)NC(=O)[C@H](CC(C)C)NC(=O)CN)C(=O)N[C@@H](CCCCN)C(=O)N[C@@H](C(=O)N[C@@H](CC(C)C)C(=O)N[C@@H](CC(C)C)C(N)=O)[C@H](C)O | – | – | – | – | – | – | > 256 | 32 (≈ 36.9 µg/mL) | 256 (≈ 295 µg/mL) | 128 (≈ 148 µg/mL) | – | > 256 | – | – |
| CCCCCCCCC(=O)NCC(=O)N[C@@H](CC(C)C)C(=O)N(C)[C@@H](CC(C)C)C(=O)N[C@@H](CCCCN)C(=O)N[C@@H](CCCNC(=N)N)C(=O)N(C)[C@H](C(=O)N[C@@H](CCCCN)C(=O)N[C@H](C(=O)N[C@@H](CC(C)C)C(=O)N[C@@H](CC(C)C)C(N)=O)[C@@H](C)O)[C@@H](C)CC (Nonanoyl-GL[NMeL]KR[NMeI]KTLL-NH2) | > 256 | 128 (≈ 169 µg/mL) | 8 (≈ 10.6 µg/mL) | 128 (≈ 169 µg/mL) | 32 (≈ 42.3 µg/mL) | > 128 | – | – | – | – | – | – | – | – |
| CC[C@H](C)[C@H](NC(=O)[C@H](CCCNC(=N)N)NC(=O)[C@H](CCCCN)NC(=O)[C@H](C)NC(=O)[C@H](CC(C)C)NC(=O)CN)C(=O)N[C@@H](CCCCN)C(=O)N[C@H](C(=O)N[C@@H](CC(C)C)C(=O)N[C@@H](CC(C)C)C(N)=O)[C@@H](C)O (H-GLAKRIKTLL-NH2) | – | – | – | – | – | – | – | – | – | – | – | – | > 34.2 | > 34.2 |
| CC[C@H](C)[C@H](NC(=O)[C@H](CCCNC(=N)N)NC(=O)[C@H](CCCCN)NC(=O)[C@@H](CC(C)C)NC(=O)[C@H](CC(C)C)NC(=O)CN)C(=O)N[C@@H](CCCCN)C(=O)N[C@H](C(=O)N[C@H](CC(C)C)C(=O)N[C@H](CC(C)C)C(N)=O)[C@@H](C)O | – | – | – | – | – | – | 64 (≈ 73.8 µg/mL) | 8 (≈ 9.23 µg/mL) | 256 (≈ 295 µg/mL) | 8 (≈ 9.23 µg/mL) | > 300 | 64 (≈ 73.8 µg/mL) | – | – |
| CC[C@H](C)[C@H](NC(=O)[C@H](CCCNC(=N)N)NC(=O)[C@H](CCCCN)NC(=O)[C@H](CC(C)C)NC(=O)[C@H](CC(C)C)NC(=O)CN)C(=O)N[C@@H](CCCCN)C(=O)N[C@H](C(=O)N[C@H](CC(C)C)C(=O)N[C@H](CC(C)C)C(N)=O)[C@@H](C)O | – | – | – | – | – | – | 64 (≈ 73.8 µg/mL) | 8 (≈ 9.23 µg/mL) | 256 (≈ 295 µg/mL) | 8 (≈ 9.23 µg/mL) | > 300 | 128 (≈ 148 µg/mL) | – | – |
| CC[C@H](C)[C@H](NC(=O)[C@H](CCCNC(=N)N)NC(=O)[C@H](CCCCN)NC(=O)[C@H](CC(C)C)NC(=O)[C@@H](CC(C)C)NC(=O)CN)C(=O)N[C@@H](CCCCN)C(=O)N[C@H](C(=O)N[C@@H](CC(C)C)C(=O)N[C@H](CC(C)C)C(N)=O)[C@@H](C)O | – | – | – | – | – | – | > 256 | 64 (≈ 73.8 µg/mL) | 128 (≈ 148 µg/mL) | 64 (≈ 73.8 µg/mL) | > 300 | > 256 | – | – |
| CC[C@H](C)[C@H](NC(=O)[C@H](CCCNC(=N)N)NC(=O)[C@H](CCCCN)NC(=O)[C@@H](CC(C)C)NC(=O)[C@@H](CC(C)C)NC(=O)CN)C(=O)N[C@@H](CCCCN)C(=O)N[C@H](C(=O)N[C@@H](CC(C)C)C(=O)N[C@@H](CC(C)C)C(N)=O)[C@@H](C)O | – | – | – | – | – | – | > 256 | 16 (≈ 18.5 µg/mL) | 128 (≈ 148 µg/mL) | 8 (≈ 9.23 µg/mL) | > 300 | > 256 | – | – |
